Data reported in PMC11750672, “The in vivo metabolic pathway of Deg-AZM and in vitro investigations into the contribution of drug metabolizing enzymes and drug transporters in the drug interactions of Deg-AZM, a clinical-stage new transgelin agonist” (Frontiers in Pharmacology, 2025).

Tests used:
Assay type in all cases: in vitro ADME
CYP1A2 = target: T1, CYP1A2 (Homo sapiens, UniProt P05177); experiment: CYP inhibition in HLMs; details: HLM 0.5 mg/mL, probe phenacetin, 20 min
T1 construct: from tissue; host or cells: human liver microsomes
T1 sequence (P05177 1-516): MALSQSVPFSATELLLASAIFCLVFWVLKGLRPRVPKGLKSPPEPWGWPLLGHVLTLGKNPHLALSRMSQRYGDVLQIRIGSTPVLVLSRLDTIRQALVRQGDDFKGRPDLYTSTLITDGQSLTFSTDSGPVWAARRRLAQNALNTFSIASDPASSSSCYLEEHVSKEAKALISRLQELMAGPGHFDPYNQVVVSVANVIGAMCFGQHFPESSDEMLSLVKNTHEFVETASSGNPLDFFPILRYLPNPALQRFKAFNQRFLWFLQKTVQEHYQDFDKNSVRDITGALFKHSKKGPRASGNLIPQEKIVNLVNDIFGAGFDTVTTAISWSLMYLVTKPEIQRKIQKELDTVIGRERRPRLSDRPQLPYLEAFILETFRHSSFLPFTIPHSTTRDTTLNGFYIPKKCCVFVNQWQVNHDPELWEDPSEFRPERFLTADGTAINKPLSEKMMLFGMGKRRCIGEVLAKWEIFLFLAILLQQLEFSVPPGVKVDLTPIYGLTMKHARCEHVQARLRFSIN
Experimental: (§1) CYP inhibition potential of Deg-AZM was assessed in NADPH-fortified HLMs (0.5 mg/mL for CYP1A2, CYP2B6, CYP2C19 and CYP2D6 system, 0.035 mg/mL for CYP2C9 system, 0.05 mg/mL for CYP3A4 system, and 0.025 mg/mL for CYP2C8 system) using CYP probe substrates (same as the positive controls in HLM phenotyping assays). Deg-AZM in triplicates (0, 0.2, 0.6, 2.0, 6.0, 20, and 60 μM) was treated with each probe of CYP1A2 (20 min), CYP2B6 (20 min), CYP2C8 (10 min), CYP2C9 (60 min), CYP2C19 (45 min), CYP2D6 (30 min) and CYP3A4 (15 min). Probe substrate metabolites were analyzed by LC-MS/MS and the peak area ratios of analytes to internal standard (Indapamide) were calculated. The activity of the CYP450 enzyme subtype is directly proportional to the concentration of the corresponding probe substrate metabolites. The average of the measured values of each group was calculated, the control tube value was set as 100%, the residual probe substrate metabolites was calculated in the presence of positive inhibitors and Deg-AZM at series concentration. IC50 values were calculated by the dose-response model (nonlinear regression) in GraphPad Prism software.

CYP2B6 = target: T2, CYP2B6 (Homo sapiens, UniProt P20813); experiment: CYP inhibition in HLMs; details: HLM 0.5 mg/mL, probe bupropion, 20 min
T2 construct: from tissue; host or cells: human liver microsomes
T2 sequence (P20813 1-491): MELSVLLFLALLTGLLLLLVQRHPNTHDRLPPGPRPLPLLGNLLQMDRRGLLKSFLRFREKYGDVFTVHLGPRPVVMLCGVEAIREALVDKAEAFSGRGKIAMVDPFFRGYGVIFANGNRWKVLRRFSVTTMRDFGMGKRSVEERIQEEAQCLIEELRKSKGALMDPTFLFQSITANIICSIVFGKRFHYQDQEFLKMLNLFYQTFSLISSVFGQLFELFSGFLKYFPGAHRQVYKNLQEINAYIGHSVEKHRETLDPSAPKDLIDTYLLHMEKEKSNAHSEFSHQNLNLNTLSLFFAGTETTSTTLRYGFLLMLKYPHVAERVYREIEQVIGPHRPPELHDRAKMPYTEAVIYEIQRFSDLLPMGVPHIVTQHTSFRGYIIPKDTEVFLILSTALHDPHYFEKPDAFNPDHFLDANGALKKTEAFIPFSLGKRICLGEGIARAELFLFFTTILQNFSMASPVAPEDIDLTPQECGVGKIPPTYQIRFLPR
Experimental: as §1

CYP2C8 = target: T3, CYP2C8 (Homo sapiens, UniProt P10632); experiment: CYP inhibition in HLMs; details: HLM 0.025 mg/mL, probe amodiaquine, 10 min
T3 construct: from tissue; host or cells: human liver microsomes
T3 sequence (P10632 1-490): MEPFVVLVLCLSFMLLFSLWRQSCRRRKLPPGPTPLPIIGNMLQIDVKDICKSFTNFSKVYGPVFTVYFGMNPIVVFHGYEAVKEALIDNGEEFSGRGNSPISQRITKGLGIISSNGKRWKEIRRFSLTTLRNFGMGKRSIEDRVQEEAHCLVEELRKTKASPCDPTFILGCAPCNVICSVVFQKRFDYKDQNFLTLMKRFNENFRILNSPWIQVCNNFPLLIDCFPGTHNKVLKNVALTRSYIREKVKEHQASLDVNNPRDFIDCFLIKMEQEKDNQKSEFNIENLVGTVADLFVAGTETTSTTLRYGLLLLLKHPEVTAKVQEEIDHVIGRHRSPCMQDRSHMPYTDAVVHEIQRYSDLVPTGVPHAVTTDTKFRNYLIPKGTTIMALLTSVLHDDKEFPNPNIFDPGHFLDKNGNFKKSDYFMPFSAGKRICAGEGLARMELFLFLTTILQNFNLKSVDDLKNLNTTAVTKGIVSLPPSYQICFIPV
Experimental: as §1

CYP2C9 = target: T4, CYP2C9 (Homo sapiens, UniProt P11712); experiment: CYP inhibition in HLMs; details: HLM 0.035 mg/mL, probe diclofenac, 60 min
T4 construct: from tissue; host or cells: human liver microsomes
T4 sequence (P11712 whole entry): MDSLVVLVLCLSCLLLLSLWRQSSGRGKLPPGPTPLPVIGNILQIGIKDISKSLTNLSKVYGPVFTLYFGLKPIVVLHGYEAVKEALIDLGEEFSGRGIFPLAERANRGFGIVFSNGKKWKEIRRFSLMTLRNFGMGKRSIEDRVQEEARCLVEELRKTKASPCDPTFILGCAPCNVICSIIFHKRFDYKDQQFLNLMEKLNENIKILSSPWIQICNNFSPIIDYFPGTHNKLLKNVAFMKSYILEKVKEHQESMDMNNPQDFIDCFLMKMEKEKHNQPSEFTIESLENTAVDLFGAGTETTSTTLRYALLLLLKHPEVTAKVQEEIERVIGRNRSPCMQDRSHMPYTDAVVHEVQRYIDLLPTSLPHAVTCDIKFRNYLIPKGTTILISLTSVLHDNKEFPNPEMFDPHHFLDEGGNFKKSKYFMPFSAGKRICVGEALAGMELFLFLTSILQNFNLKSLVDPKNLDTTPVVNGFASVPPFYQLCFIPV
Experimental: as §1

CYP3A4 = experiment: CYP induction (mRNA, qPCR) in human hepatocytes; details: for CYP3A4 induction, % of PC: PC rifampicin 20 μM
Text: After culture and complete induction, total mRNA was extracted by TRNzol RNA Extraction Kit (purchased from Tiangen Biochemical Technology Co., Ltd., Beijing). The RNA was reverse transcribed into cDNA according to the instructions of the Transcriptor First Strand cDNA Synthesis Kit (purchased from Roche, Switzerland). Using reverse transcribed cDNA as a template, amplifying the internal reference genes of β-Actin of the sample and target genes of CYP1A2, CYP2B6, and CYP3A4 respectively to compare the expression differences.

- IC50 (CYP1A2): > 60 µM
- IC50 (CYP2B6): 8.97 µM
- IC50 (CYP2C8): > 60 µM
- IC50 (CYP2C9): > 60 µM
- CYP3A4 induction, % of PC (CYP3A4; 5 μM, batch HUB): 2.15%
- CYP3A4 induction, % of PC (CYP3A4; 5 μM, batch LHuf 17905B): 5.55%
- CYP3A4 induction, % of PC (CYP3A4; 5 μM, batch MWB): 1.99%
- CYP3A4 mRNA induction, times of control group (CYP3A4; 5 μM, hepatocyte batch HUB): 1.80
- CYP3A4 mRNA induction, times of control group (CYP3A4; 5 μM, hepatocyte batch LHuf 17905B): 2.30
- CYP3A4 mRNA induction, times of control group (CYP3A4; 5 μM, hepatocyte batch MWB): 1.96
- CYP3A4 induction, % of PC (CYP3A4; 25 μM, batch HUB): 3.06%
- CYP3A4 induction, % of PC (CYP3A4; 25 μM, batch LHuf 17905B): 12.1%
- CYP3A4 induction, % of PC (CYP3A4; 25 μM, batch MWB): 6.32%
- CYP3A4 mRNA induction, times of control group (CYP3A4; 25 μM, hepatocyte batch HUB): 2.13
- CYP3A4 mRNA induction, times of control group (CYP3A4; 25 μM, hepatocyte batch LHuf 17905B): 3.84
- CYP3A4 mRNA induction, times of control group (CYP3A4; 25 μM, hepatocyte batch MWB): 4.05
- CYP3A4 induction, % of PC (CYP3A4; 100 μM, batch HUB): 13.5%
- CYP3A4 induction, % of PC (CYP3A4; 100 μM, batch LHuf 17905B): 54.2%
- CYP3A4 induction, % of PC (CYP3A4; 100 μM, batch MWB): 29.3%
- CYP3A4 mRNA induction, times of control group (CYP3A4; 100 μM, hepatocyte batch HUB): 6.01
- CYP3A4 mRNA induction, times of control group (CYP3A4; 100 μM, hepatocyte batch LHuf 17905B): 13.7
- CYP3A4 mRNA induction, times of control group (CYP3A4; 100 μM, hepatocyte batch MWB): 15.2
- Induction effect on CYP3A4 (conclusion) (CYP3A4; 5, 25, and 100 µM, three batches of primary human hepatocytes): has an inducing effect
Compound: CCC1OC(=O)C(C)C(O)C(C)C(O)C(C)(O)CC(C)CN(C)C(C)C(O)C1(C)O (centres unmarked) [Deg-AZM, Deglycosylated azithromycin]
